We go through 31 molecules from ChEMBL document CHEMBL6182915, “Discovery of a Potent FLT3 Inhibitor (E)-4-(3-(3-Fluoro-4-(morpholinomethyl)styryl)-1H-indazol-6-yl)pyridin-2-amine for the Treatment of Acute Myeloid Leukemia with Multiple FLT3 Mutations” (J Med Chem, 2025).

Broadly, the pIC50 is the negative decadic logarithm of the IC50, by convention in mol/L. A low value points to a high IC50.

Common to all, as to test: cells
In test [1] the test system is MV4-11. The note with it: Homo sapiens, MV4-11, 72 h.
Description: Antiproliferative activity against human MV4-11 cells harboring FLT3-ITD mutant assessed as inhibition of cell growth incubated for 3 days by MTT assay
Test [2] has as its system MV4-11. Conditions: Homo sapiens, MV4-11, 72 h. The source holds these as a separate data set.
Test [3] concerns MV4-11. Conditions: Homo sapiens, MV4-11, 72 h, read-out: INH.

pIC50: −log10 of the molar value.

For `Nc1cc(-c2ccc3c(/C=C/c4ccc(N5CCOCC5)cc4)n[nH]c3c2)ccn1`, the results for the pIC50 in test [1] and in test [2] were 8.05 and 5.47, respectively.

As for `Nc1cc(-c2ccc3c(-c4cnn(CCO)c4)n[nH]c3c2)ccn1`, the pIC50 in test [1] was 6.65; in test [2], under 5.00.

Turning to `Nc1cc(-c2ccc3c(-c4ccc(S(=O)(=O)N5CCOCC5)cc4)n[nH]c3c2)ccn1`, the pIC50 in test [1] is 6.70; in test [2], under 5.00.

With `Nc1cc(-c2ccc3c(/C=C/c4ccccc4)n[nH]c3c2)ccn1`, the negative logarithm of the IC50 (pIC50) in test [1] was 7.40; in test [2], 5.21.

As to `Nc1cc(-c2ccc3c(/C=C/c4ccc(CN5CCOCC5)cc4)n[nH]c3c2)ccn1`, the pIC50 in test [1] was 7.94; in test [2] it was 5.96.

On to `O=C(c1ccc(/C=C/c2n[nH]c3cc(-c4ccncc4)ccc23)cc1)N1CCNCC1`, for which the negative-log IC50 (pIC50) was 7.89 in test [1] and 5.47 in test [2].

As for `O=C(c1ccc(/C=C/c2n[nH]c3ccc(-c4cccnc4)cc23)cc1)N1CCNCC1`, the pIC50 in test [1] was 7.82; in test [2], under 5.00.

Consider `CN1CCN(Cc2ccc(-c3n[nH]c4cc(-c5ccnc(N)c5)ccc34)cc2)CC1`, for which the values for the pIC50 in test [1] and in test [2] were 6.81 and under 5.00, respectively.

As for `CCn1cc(-c2n[nH]c3cc(-c4ccnc(N)c4)ccc23)cn1`, the values for the pIC50 in test [1] and in test [2] were 6.79 and under 5.00, respectively.

`CCc1nc(C(N)=O)c(Nc2ccc(N3CCC(N4CCN(C)CC4)CC3)c(OC)c2)nc1NC1CCOCC1` [GILTERITINIB]: the inhibition at 10 µM in test [3] was over 70%.

For `O=C(c1ccc(/C=C/c2n[nH]c3ccc(-c4ccncc4)cc23)cc1)N1CCNCC1`, the pIC50 is 7.23 in test [1] and under 5.00 in test [2].

Consider `Nc1cc(-c2ccc3c(-c4ccc(N5CCOCC5)cc4)n[nH]c3c2)ccn1`, for which the values for the pIC50 in test [1] and in test [2] were 7.35 and under 5.00, respectively.

`Nc1cc(-c2cnc3c(/C=C/c4ccc(CN5CCOCC5)c(F)c4)n[nH]c3c2)ccn1`: the pIC50 in test [1] is 7.59; in test [2] it was 6.05.

Take `Nc1cc(-c2ccc3c(/C=C/c4ccc(C(=O)N5CCOCC5)cc4)n[nH]c3c2)ccn1`: the pIC50 is 7.69 in test [1] and 5.64 in test [2].

For the molecule `COc1cc(/C=C/c2n[nH]c3cc(-c4ccnc(N)c4)ccc23)cc(OC)c1`, the pIC50 in test [1] is 6.45; in test [2], under 5.00.

Consider `Nc1ccc(-c2ccc3c(/C=C/c4ccc(C(=O)N5CCNCC5)cc4)n[nH]c3c2)cn1`, for which the figures for the pIC50 in test [1] and in test [2] were 7.57 and under 5.00, respectively.

`Nc1nccc(-c2ccc3c(/C=C/c4ccc(CN5CCOCC5)c(F)c4)n[nH]c3c2)n1`: the pIC50 is 7.97 in test [1] and 6.22 in test [2].

In the case of `CN1CCN(c2ccc(-c3n[nH]c4cc(-c5ccnc(N)c5)ccc34)cc2)CC1`, the values for the pIC50 in test [1] and in test [2] were 7.26 and under 5.00, respectively.

`Nc1cc(-c2ccc3c(/C=C/c4ccncc4)n[nH]c3c2)ccn1`: the pIC50 in test [1] was 7.74; in test [2], 5.16.

Turning to `O=C(c1ccc(/C=C/c2n[nH]c3ccc(-c4ccccc4)cc23)cc1)N1CCNCC1`, the figures for the pIC50 in test [1] and in test [2] were 7.26 and under 5.00, respectively.

On to `Nc1cc(-c2ccc3c(/C=C/c4ccc(C(=O)N5CCNCC5)cc4)n[nH]c3c2)ccn1`, for which the figures for the pIC50 in test [1] and in test [2] were 8.21 and 5.74, respectively.

As to `CN1CCN(c2ccc(/C=C/c3n[nH]c4cc(-c5ccnc(N)c5)ccc34)cc2)CC1`, the negative-log IC50 (pIC50) in test [1] is 8.19; in test [2] it was 5.55.

In the case of `CN1CCN(Cc2ccc(/C=C/c3n[nH]c4cc(-c5ccnc(N)c5)ccc34)cc2)CC1`, the pIC50 in test [1] is 7.78; in test [2], 5.80.

Take `O=C(c1ccc(/C=C/c2n[nH]c3cc(-c4cccnc4)ccc23)cc1)N1CCNCC1`: the pIC50 is 7.78 in test [1] and under 5.00 in test [2].

For the molecule `O=C(Cc1ccc(-c2ccc(OCCN3CCOCC3)cc2)cn1)NCc1ccccc1` [TIRBANIBULIN], in test [3], the inhibition at 10 µM is over 70%.

As for `Nc1cc(-c2ccc3c(/C=C/c4ccc(CN5CCOCC5)c(Cl)c4)n[nH]c3c2)ccn1`, the pIC50 is 7.98 in test [1] and 6.10 in test [2].

Consider `Nc1cc(-c2ccc3c(/C=C/c4cccnc4)n[nH]c3c2)ccn1`, for which the pIC50 in test [1] is 7.53; in test [2], 5.64.

As for `O=C(c1ccc(/C=C/c2n[nH]c3cc(-c4ccccc4)ccc23)cc1)N1CCNCC1`, the pIC50 in test [1] was 7.65; in test [2], 5.16.

For the molecule `Nc1cc(-c2ccc3c(CCc4ccc(CN5CCOCC5)c(F)c4)n[nH]c3c2)ccn1`, the pIC50 in test [1] is 6.66; in test [2], under 5.00.

As to `Nc1cc(-c2ccc3c(-c4ccc(CN5CCOCC5)cc4)n[nH]c3c2)ccn1`, the pIC50 in test [1] is 7.06; in test [2], under 5.00.

Turning to `O=C(c1ccc(/C=C/c2n[nH]c3cc(-c4ccnc5[nH]ccc45)ccc23)cc1)N1CCNCC1`, the figures for the pIC50 in test [1] and in test [2] were 7.73 and 5.24, respectively.
